Laboratory results reported in PubChem BioAssay (NCI).
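How tested: cells in 96-well plates exposed to compound for 48 hours at five concentrations. TGI: total growth inhibition.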

Key:
Experiment in all cases: inhibition of tumour cell growth, NCI panel, 48 h
HCT-116 colon = tested on: HCT-116 colon
SK-MEL-5 melanoma = tested on: SK-MEL-5 melanoma
RPMI-8226 leukemia = tested on: RPMI-8226 leukemia
HCC-2998 colon = tested on: HCC-2998 colon
KM12 colon = tested on: KM12 colon
UO-31 renal = tested on: UO-31 renal
HS 578T breast = tested on: HS 578T breast
NCI-H460 lung = tested on: NCI-H460 lung
CAKI-1 renal = tested on: CAKI-1 renal
EKVX NSCLC = tested on: EKVX NSCLC
HT29 colon = tested on: HT29 colon
SF-539 CNS = tested on: SF-539 CNS
A549 NSCLC = tested on: A549 NSCLC
SNB-75 CNS = tested on: SNB-75 CNS
CCRF-CEM leukemia = tested on: CCRF-CEM leukemia
NCI-H522 lung = tested on: NCI-H522 lung
SF-268 CNS = tested on: SF-268 CNS
TK-10 renal = tested on: TK-10 renal
MALME-3M melanoma = tested on: MALME-3M melanoma
OVCAR-5 ovarian = tested on: OVCAR-5 ovarian
SNB-19 CNS = tested on: SNB-19 CNS
NCI-H23 lung = tested on: NCI-H23 lung
T-47D breast = tested on: T-47D breast
MDA-MB-435 = tested on: MDA-MB-435
SN12C renal = tested on: SN12C renal
ACHN renal = tested on: ACHN renal
COLO 205 colon = tested on: COLO 205 colon
MOLT-4 leukemia = tested on: MOLT-4 leukemia
U251 CNS = tested on: U251 CNS
NCI/ADR-RES ovarian = tested on: NCI/ADR-RES ovarian
HCT-15 colon = tested on: HCT-15 colon
DU-145 prostate = tested on: DU-145 prostate
OVCAR-8 ovarian = tested on: OVCAR-8 ovarian
OVCAR-3 ovarian = tested on: OVCAR-3 ovarian
BT-549 breast = tested on: BT-549 breast
MDA-MB-231 breast = tested on: MDA-MB-231 breast
SK-OV-3 ovarian = tested on: SK-OV-3 ovarian
HL-60(TB) leukemia = tested on: HL-60(TB) leukemia
SK-MEL-28 melanoma = tested on: SK-MEL-28 melanoma
MDA-N = tested on: MDA-N
LOX IMVI melanoma = tested on: LOX IMVI melanoma
M14 melanoma = tested on: M14 melanoma
RXF 393 renal = tested on: RXF 393 renal
PC-3 prostate = tested on: PC-3 prostate
SK-MEL-2 melanoma = tested on: SK-MEL-2 melanoma
SF-295 CNS = tested on: SF-295 CNS
OVCAR-4 ovarian = tested on: OVCAR-4 ovarian
UACC-62 melanoma = tested on: UACC-62 melanoma
MCF7 breast = tested on: MCF7 breast
HOP-92 NSCLC = tested on: HOP-92 NSCLC
SW-620 colon = tested on: SW-620 colon
K-562 leukemia = tested on: K-562 leukemia
HOP-62 NSCLC = tested on: HOP-62 NSCLC
UACC-257 melanoma = tested on: UACC-257 melanoma
NCI-H226 lung = tested on: NCI-H226 lung
IGROV1 ovarian = tested on: IGROV1 ovarian
786-0 renal = tested on: 786-0 renal
SR leukemia = tested on: SR leukemia

In the case of `Cn1c2ccccc2c(=NNc2ccc(S(N)(=O)=O)cc2)c2ccccc21`, the TGI (HCT-116 colon) is reported as > 50 µM, the TGI (SK-MEL-5 melanoma) is reported as 22.5 µM and the TGI (RPMI-8226 leukemia) is reported as > 50 µM. The TGI (HCC-2998 colon) was 38.7 µM, the TGI (KM12 colon) was > 50 µM and the TGI (UO-31 renal) was 41.1 µM. The TGI (HS 578T breast) was > 50 µM, the TGI (NCI-H460 lung) was 34.3 µM and the TGI (CAKI-1 renal) was > 50 µM. For the same molecule, the TGI (EKVX NSCLC) was > 50 µM, the TGI (HT29 colon) was > 50 µM and the TGI (SF-539 CNS) was > 50 µM. For the same molecule, the TGI (A549 NSCLC) was > 50 µM, the TGI (SNB-75 CNS) was 46.6 µM and the TGI (CCRF-CEM leukemia) was > 50 µM. The TGI (NCI-H522 lung) was > 50 µM, the TGI (SF-268 CNS) was > 50 µM and the TGI (TK-10 renal) was > 50 µM. For the same molecule, the TGI (MALME-3M melanoma) was 43.2 µM, the TGI (OVCAR-5 ovarian) was > 50 µM and the TGI (SNB-19 CNS) was > 50 µM. The TGI (NCI-H23 lung) was > 50 µM, the TGI (T-47D breast) was 34.8 µM and the TGI (MDA-MB-435) was > 50 µM. For the same molecule, the TGI (SN12C renal) was > 50 µM, the TGI (ACHN renal) was 29 µM and the TGI (COLO 205 colon) was > 50 µM. For the same molecule, the TGI (MOLT-4 leukemia) was 26.9 µM, the TGI (U251 CNS) was > 50 µM and the TGI (NCI/ADR-RES ovarian) was > 50 µM. For the same molecule, the TGI (HCT-15 colon) was > 50 µM, the TGI (DU-145 prostate) was > 50 µM and the TGI (OVCAR-8 ovarian) was > 50 µM. The TGI (OVCAR-3 ovarian) was > 50 µM, the TGI (BT-549 breast) was > 50 µM and the TGI (MDA-MB-231 breast) was > 50 µM. The TGI (SK-OV-3 ovarian) was > 50 µM, the TGI (HL-60(TB) leukemia) was 32 µM and the TGI (SK-MEL-28 melanoma) was > 50 µM. The TGI (MDA-N) was > 50 µM, the TGI (LOX IMVI melanoma) was 38.1 µM and the TGI (M14 melanoma) was > 50 µM. For the same molecule, the TGI (RXF 393 renal) was 43.7 µM, the TGI (PC-3 prostate) was > 50 µM and the TGI (SK-MEL-2 melanoma) was 34.3 µM. The TGI (SF-295 CNS) was > 50 µM, the TGI (OVCAR-4 ovarian) was > 50 µM and the TGI (UACC-62 melanoma) was > 50 µM. The TGI (MCF7 breast) was 43.1 µM, the TGI (HOP-92 NSCLC) was 35.8 µM and the TGI (SW-620 colon) was > 50 µM. The TGI (K-562 leukemia) was 40.4 µM, the TGI (HOP-62 NSCLC) was > 50 µM and the TGI (UACC-257 melanoma) was 49.8 µM. The TGI (NCI-H226 lung) was 48.4 µM, the TGI (IGROV1 ovarian) was > 50 µM and the TGI (786-0 renal) was > 50 µM. It also gave a TGI (SR leukemia) of 25.6 µM.
In the case of `CC(C)OP(=O)(CCCCCCCCC/C=C/c1ccc2c(c1)OCCOCCOCCOCCO2)OC(C)C`, the TGI (HCT-116 colon) is reported as 11.2 µM, the TGI (SK-MEL-5 melanoma) is reported as 7.76 µM and the TGI (RPMI-8226 leukemia) is reported as > 100 µM. The TGI (HCC-2998 colon) was 14.2 µM, the TGI (KM12 colon) was 11 µM and the TGI (UO-31 renal) was 9.02 µM. The TGI (HS 578T breast) was 9.02 µM, the TGI (NCI-H460 lung) was 7.37 µM and the TGI (CAKI-1 renal) was 11.7 µM. For the same molecule, the TGI (EKVX NSCLC) was 11.8 µM, the TGI (HT29 colon) was 11 µM and the TGI (SF-539 CNS) was 12.4 µM. It also gave a TGI (A549 NSCLC) of 13.6 µM, a TGI (SNB-75 CNS) of 10.4 µM and a TGI (CCRF-CEM leukemia) of 7.5 µM. The TGI (NCI-H522 lung) was 10.1 µM, the TGI (SF-268 CNS) was 16.8 µM and the TGI (TK-10 renal) was 21.4 µM. The TGI (MALME-3M melanoma) was 13.7 µM, the TGI (OVCAR-5 ovarian) was 11.4 µM and the TGI (SNB-19 CNS) was 15.2 µM. The TGI (NCI-H23 lung) was 8.21 µM, the TGI (T-47D breast) was 9.11 µM and the TGI (MDA-MB-435) was 13.6 µM. The TGI (SN12C renal) was 14.2 µM, the TGI (ACHN renal) was 11.8 µM and the TGI (COLO 205 colon) was 3.89 µM. For the same molecule, the TGI (MOLT-4 leukemia) was 10.7 µM, the TGI (U251 CNS) was 7.74 µM and the TGI (NCI/ADR-RES ovarian) was 10.5 µM. The TGI (HCT-15 colon) was 10.3 µM, the TGI (DU-145 prostate) was 15.2 µM and the TGI (OVCAR-8 ovarian) was 12.1 µM. For the same molecule, the TGI (OVCAR-3 ovarian) was 10 µM, the TGI (BT-549 breast) was 9.09 µM and the TGI (MDA-MB-231 breast) was 12.6 µM. For the same molecule, the TGI (SK-OV-3 ovarian) was 9.19 µM, the TGI (HL-60(TB) leukemia) was 30.7 µM and the TGI (SK-MEL-28 melanoma) was 20.1 µM. For the same molecule, the TGI (MDA-N) was 13.5 µM, the TGI (LOX IMVI melanoma) was 4.93 µM and the TGI (M14 melanoma) was 13.5 µM. It also gave a TGI (RXF 393 renal) of 9.12 µM, a TGI (PC-3 prostate) of 9.51 µM and a TGI (SK-MEL-2 melanoma) of 8.69 µM. For the same molecule, the TGI (SF-295 CNS) was 10.3 µM, the TGI (OVCAR-4 ovarian) was 16.2 µM and the TGI (UACC-62 melanoma) was 14.8 µM. It also gave a TGI (MCF7 breast) of 11.2 µM, a TGI (HOP-92 NSCLC) of 5.8 µM and a TGI (SW-620 colon) of 14.7 µM. For the same molecule, the TGI (K-562 leukemia) was 24.1 µM, the TGI (HOP-62 NSCLC) was 6.15 µM and the TGI (UACC-257 melanoma) was 10.2 µM. It also gave a TGI (NCI-H226 lung) of 9.24 µM, a TGI (IGROV1 ovarian) of 16.2 µM and a TGI (786-0 renal) of 14.1 µM. It also gave a TGI (SR leukemia) of 15.4 µM.
`CCN(CC)CCn1c(=O)c2ccccc2n2c3c(=O)n(C)c(=O)n(C)c3nc12` showed a TGI (HCT-116 colon) of 8.71 µM, a TGI (SK-MEL-5 melanoma) of 2.94 µM and a TGI (RPMI-8226 leukemia) of 5.94 µM. For the same molecule, the TGI (HCC-2998 colon) was 6.8 µM, the TGI (KM12 colon) was 6.03 µM and the TGI (UO-31 renal) was 6.29 µM. It also gave a TGI (HS 578T breast) of 19.6 µM, a TGI (NCI-H460 lung) of 1.65 µM and a TGI (CAKI-1 renal) of 3.91 µM. For the same molecule, the TGI (EKVX NSCLC) was 11.7 µM, the TGI (HT29 colon) was 9.55 µM and the TGI (SF-539 CNS) was 2.95 µM. It also gave a TGI (A549 NSCLC) of 2.05 µM, a TGI (SNB-75 CNS) of 7.46 µM and a TGI (CCRF-CEM leukemia) of 13.1 µM. The TGI (NCI-H522 lung) was 9 µM, the TGI (SF-268 CNS) was 12.1 µM and the TGI (TK-10 renal) was 52.5 µM. The TGI (MALME-3M melanoma) was 10.6 µM, the TGI (OVCAR-5 ovarian) was 7.09 µM and the TGI (SNB-19 CNS) was 38.1 µM. It also gave a TGI (NCI-H23 lung) of 10.1 µM, a TGI (T-47D breast) of 20.8 µM and a TGI (MDA-MB-435) of 15.9 µM. For the same molecule, the TGI (SN12C renal) was 10.2 µM, the TGI (ACHN renal) was 1.09 µM and the TGI (COLO 205 colon) was 14.5 µM. It also gave a TGI (MOLT-4 leukemia) of 4.73 µM, a TGI (U251 CNS) of 6.03 µM and a TGI (NCI/ADR-RES ovarian) of 30.2 µM. It also gave a TGI (HCT-15 colon) of 66.2 µM, a TGI (DU-145 prostate) of 4.47 µM and a TGI (OVCAR-8 ovarian) of 8.06 µM. For the same molecule, the TGI (OVCAR-3 ovarian) was 16.4 µM, the TGI (BT-549 breast) was 4.22 µM and the TGI (MDA-MB-231 breast) was 19.3 µM. The TGI (SK-OV-3 ovarian) was 4.77 µM, the TGI (HL-60(TB) leukemia) was 2.5 µM and the TGI (SK-MEL-28 melanoma) was 18.3 µM. For the same molecule, the TGI (MDA-N) was 17.6 µM, the TGI (LOX IMVI melanoma) was 31.3 µM and the TGI (M14 melanoma) was 13 µM. The TGI (RXF 393 renal) was 34.4 µM, the TGI (PC-3 prostate) was 20.4 µM and the TGI (SK-MEL-2 melanoma) was 6.61 µM. The TGI (SF-295 CNS) was 10.1 µM, the TGI (OVCAR-4 ovarian) was 23.5 µM and the TGI (UACC-62 melanoma) was 3.22 µM. For the same molecule, the TGI (MCF7 breast) was 6.2 µM, the TGI (HOP-92 NSCLC) was 7.85 µM and the TGI (SW-620 colon) was 16.1 µM. For the same molecule, the TGI (K-562 leukemia) was 19.4 µM, the TGI (HOP-62 NSCLC) was 4.62 µM and the TGI (UACC-257 melanoma) was 16.7 µM. For the same molecule, the TGI (NCI-H226 lung) was 3.35 µM, the TGI (IGROV1 ovarian) was 23.3 µM and the TGI (786-0 renal) was 5.43 µM. It also gave a TGI (SR leukemia) of 5.15 µM.
